{"source": "patent US11268958B2", "about": "“Bacteria-specific labeled substrtates as imaging biomarkers to diagnose, locate, and monitor infections” (THE JOHNS HOPKINS UNIVERSITY, priority 2012, dated 2022)", "key": {"Mycobacterium smegmatis": {"system": "Mycobacterium smegmatis", "test": "Intracellular tracer uptake assay in M. smegmatis cultures", "conditions": "2 hours of incubation", "experimental": "(§3) In vitro uptake assays: Freeze dried reference strains of various bacterial species were purchased from American Type Culture Collection (Manassas, Va.) and grown to mid-log phase (OD600 1.0) in Lysogeny Broth (LB) or Middlebrook 7H9 broth supplemented with 10% oleic acid-albumin-dextrose-catalase (Difco, Detroit, Mich.) and 0.05% Tween 80 (Sigma). The number of colony forming units (CFUs) were enumerated by dilution and plating onto solidified media. Tracer uptake assays were performed by incubating bacterial cultures with 7.4 kBq per ml culture of tracer at 37° C. with rapid agitation for 4 hours, with sampling at 0, 30, 120, and 240 minutes. As a control, heat killed (90° C. for 20 minutes) bacteria were similarly incubated with each tracer. Bacteria were pelleted by centrifugation and washed three times with PBS. The activity for each pellet was measured using an automated gamma counter (1282 Compugamma CS Universal gamma counter, LKB Wallac). Background counts were subtracted from sample counts. Six independent replicates were used for each tracer, and for each bacterial strain. Uptake was expressed as the percentage of total tracer added to the culture that resided within the cell pellet."}, "Escherichia coli": {"system": "Escherichia coli", "test": "Intracellular tracer uptake assay in E. coli cultures", "assay_type": "cell-based"}, "Staphylococcus aureus": {"system": "Staphylococcus aureus", "test": "Intracellular tracer uptake assay in S. aureus cultures", "assay_type": "cell-based", "conditions": "for intracellular uptake / probe incorporated by bacteria (percent of total radioactivity): S. aureus; for probe incorporated by bacteria (percent of total radioactivity): gram positive control, 120 minutes"}, "[1]": {"system": "Human Brain Microvascular Endothelial Cells (HBMEC)", "conditions": "2 h"}, "J774 macrophages": {"system": "J774 macrophages", "test": "Tracer uptake in host cells (J774 macrophages)", "assay_type": "cell-based", "conditions": "for accumulation in eukaryotic cell line: J774 macrophage (data not shown)"}, "heat killed bacteria": {"system": "heat killed bacteria", "test": "Tracer uptake in heat killed bacteria (negative control)", "assay_type": "cell-based", "text": "Background counts were subtracted from sample counts.\n(§1) [^18F]FDS uptake and imaging. […] Tissues were collected for direct gamma counting."}, "[2]": {"system": "Mycobacterium tuberculosis", "experimental": "as §3"}, "S. aureus": {"system": "S. aureus", "test": "Scintillation counting of resected tissues in S. aureus thigh infection vs LPS", "assay_type": "in vivo, CBA/J mice", "conditions": "live S. aureus right thigh, 50 μg LPS left thigh, IV", "protocol": "We next investigated whether [^3H]-2-F-PABA was capable of detecting infection with S. aureus in vivo. […] [^3H]-2-F-PABA was injected IV using a tail vein catheter. Mice were sacrificed following injection, tissues were then resected and radiotracer uptake measured by scintillation counting."}, "E. coli": {"system": "E. coli", "conditions": "for right thigh vs. left thigh uptake ratio (gamma counts of resected tissues) / PET signal intensity, infected right thigh versus control left thigh (ROIs): live E. coli right thigh, heat killed E. coli left thigh; for PET signal intensity, infected right thigh versus control left thigh (ROIs): 8 hours incubation"}, "WEHI 164 fibroblasts": {"system": "WEHI 164 fibroblasts", "test": "Tracer uptake in WEHI 164 fibroblasts", "assay_type": "cell-based", "conditions": "WEHI 164 fibroblast (data not shown)"}, "[3]": {"system": "Staphylococcus aureus, Escherichia coli, Mycobacterium smegmatis", "test": "Differential intracellular accumulation in three model bacteria", "conditions": "S. aureus, E. coli, M. smegmatis", "experimental": "as §3"}, "Pseudomonas aeruginosa": {"system": "Pseudomonas aeruginosa", "test": "[18F]FDS uptake in representative organisms: Pseudomonas aeruginosa", "assay_type": "cell-based", "conditions": "aerobic gram-negative rod Pseudomonas aeruginosa", "protocol": "as §1\n(§2) To further assess the specificity of uptake, E. coli cultures were co-incubated with [^18F]FDS and increasing concentrations of unlabeled sorbitol (FIG. 6B). […] The presence of a srl gene cassette responsible for sorbitol transport, phosphorylation, and oxidation was noted within the annotated genome of E. coli. To predict the range of organisms capable of [^18F]FDS uptake, and therefore detection by PET, the srlD, the gene encoding E. coli sorbitol-6-phosphate dehydrogenase was used to query the UniProtKB database of genome sequenced bacterial species. Alignment and percentage identity was calculated using ClustalOmega. We then selected representative organisms from this panel to test for [^18F]FDS uptake (FIG. 6C)."}, "[4]": {"system": "Enterococcus, Staphylococcus and Streptococcus species", "test": "[18F]FDS uptake in representative organisms: gram positive organisms", "assay_type": "cell-based", "protocol": "as §1, §2"}, "E. coli vs S. aureus": {"system": "E. coli vs S. aureus", "test": "PET imaging and gamma counting in mixed infection model (E. coli right thigh, S. aureus left thigh)", "conditions": "6 hours incubation, imaging"}, "K. pneumoniae [5]": {"system": "K. pneumoniae", "test": "Intracellular tracer uptake assay in K. pneumoniae cultures", "conditions": "after 120 minutes", "experimental": "as §3"}, "K. pneumoniae [6]": {"system": "K. pneumoniae", "test": "PET imaging and gamma counting in K. pneumoniae pulmonary infection model", "assay_type": "in vivo, CBA/J mice"}, "[7]": {"system": "Enterobacteriaceae family", "test": "[18F]FDS uptake in representative organisms: Enterobacteriaceae", "assay_type": "cell-based", "conditions": "members of the Enterobacteriaceae family", "protocol": "as §1, §2"}, "[8]": {"conditions": "M. tb, ^3H labeled tracers, 18 hours of incubation"}}, "note": "Read-outs that look alike come from different tables or passages of the source.", "data": [{"smiles": "OC[C@@H](O)[C@@H](O)[C@H](O)[C@H](O)CO", "note": "[[^14C] D-mannitol, D-mannitol]", "values": [{"measurement": "intracellular uptake", "setting": "Mycobacterium smegmatis", "result": 83, "unit": "%"}, {"measurement": "intracellular uptake", "setting": "Escherichia coli; E. coli, 2 hours of incubation", "result": 82, "unit": "%"}, {"measurement": "intracellular uptake", "setting": "Staphylococcus aureus; 30 minutes, 5 mM glucose", "result": 33, "unit": "%"}, {"measurement": "intracellular uptake", "setting": "Staphylococcus aureus; 30 minutes, 10 mM glucose", "result": 30, "unit": "%"}, {"measurement": "intracellular uptake", "setting": "Staphylococcus aureus; 30 minutes, without any glucose in the media", "result": 53.5, "unit": "%"}, {"measurement": "intracellular uptake", "setting": "Staphylococcus aureus; 2 hours of incubation", "result": 66, "unit": "%"}, {"measurement": "uptake", "setting": "[1]", "result": "< 5", "unit": "%"}, {"measurement": "uptake", "setting": "J774 macrophages; 2 h", "result": "< 5", "unit": "%"}, {"measurement": "uptake in heat killed bacteria", "setting": "heat killed bacteria", "result": "No uptake"}]}, {"smiles": "Nc1ccc(C(=O)O)c(F)c1", "note": "[2-F-PABA, 2-fluoro-PABA]", "values": [{"measurement": "intracellular uptake", "setting": "[2]; [8]", "result": 29.4, "unit": "%"}, {"measurement": "right thigh vs. left thigh uptake ratio (scintillation counting)", "setting": "S. aureus", "result": "2.62±0.98"}]}, {"smiles": "OC[C@H]1OC(O)[C@H]([18F])[C@@H](O)[C@@H]1O", "note": "(stereo partly shown) [[^18F]FDG, 2-[^18F]-fluorodeoxyglucose, reference compound]", "values": [{"measurement": "right thigh vs. left thigh uptake ratio (gamma counts of resected tissues)", "setting": "E. coli", "result": "1.03±0.09"}, {"measurement": "PET signal intensity, infected right thigh versus control left thigh (ROIs)", "setting": "E. coli", "result": "did not produce a significant difference"}, {"measurement": "sites of PET signal concentration", "setting": "E. coli; mice, CT coregistration", "result": "heart and bladder"}, {"measurement": "probe incorporated by bacteria (percent of total radioactivity)", "setting": "Staphylococcus aureus", "result": "50.3%±3.1%"}, {"measurement": "accumulation in eukaryotic cell line", "setting": "J774 macrophages", "result": "accumulated"}, {"measurement": "uptake in heat killed bacteria", "setting": "heat killed bacteria", "result": "did not incorporate"}, {"measurement": "accumulation in eukaryotic cell line", "setting": "WEHI 164 fibroblasts", "result": "accumulated"}]}, {"smiles": "NC(CCCC(N)C(=O)O)C(=O)O", "note": "(stereo not shown) [DAP, 2,6-diaminopimelic acid]", "values": [{"measurement": "species that take up the compound (differential uptake)", "setting": "[3]", "result": "E. coli and M. smegmatis"}]}, {"smiles": "O=C[C@H](O)[C@@H](O)[C@H](O)CO", "note": "[XYL, D-xylose]", "values": [{"measurement": "species that take up the compound (differential uptake)", "setting": "[3]", "result": "E. coli alone"}]}, {"smiles": "OC[C@@H](O)[C@@H](O)[C@H](O)[C@@H]([18F])CO", "note": "[[^18F]FDS, 2-[^18F]-fluorodeoxysorbitol]", "values": [{"measurement": "accumulation of the probe", "setting": "Pseudomonas aeruginosa", "result": "did not accumulate"}, {"measurement": "right thigh vs. left thigh uptake ratio (gamma counts of resected tissues)", "setting": "E. coli", "result": "16.37±4.12"}, {"measurement": "PET signal intensity, infected right thigh versus control left thigh (ROIs)", "setting": "E. coli", "result": 12, "unit": "fold"}, {"measurement": "route of clearance from circulation", "setting": "E. coli; mice, over 120 minutes of recording (data not shown)", "result": "predominantly by the kidneys"}, {"measurement": "accumulation of the probe", "setting": "[4]", "result": "did not accumulate"}, {"measurement": "probe associated with bacteria (percent of total radioactivity)", "setting": "Escherichia coli; E. coli K12, after 120 minutes", "result": "72.2%±9.0%"}, {"measurement": "concentration of unlabeled sorbitol that outcompetes uptake", "setting": "Escherichia coli; E. coli co-incubated with increasing unlabeled sorbitol", "result": "above 40 ug/ml"}, {"measurement": "concentration of unlabeled sorbitol that outcompetes uptake", "setting": "Escherichia coli; E. coli co-incubated with increasing unlabeled sorbitol (FIG. 6B legend)", "result": "above 40 μg/ml"}, {"measurement": "PET signal at E. coli infected thigh versus S. aureus infected thigh", "setting": "E. coli vs S. aureus", "result": "significantly more intensity"}, {"measurement": "probe associated with bacteria (percent of total radioactivity)", "setting": "K. pneumoniae [5]", "result": "71.1%±8.6%"}, {"measurement": "probe incorporated by bacteria (percent of total radioactivity)", "setting": "Staphylococcus aureus", "result": "0.47%±0.09%"}, {"measurement": "lung vs. blood gamma count ratio", "setting": "K. pneumoniae [6]", "result": "10.89±4.09"}, {"measurement": "ratio of standardized uptake values, infiltrated vs normal lung tissue ROIs", "setting": "K. pneumoniae [6]; 18.5 MBq (data not shown)", "result": "5.02±66.33"}, {"measurement": "accumulation in eukaryotic cell line", "setting": "J774 macrophages", "result": "not"}, {"measurement": "uptake in heat killed bacteria", "setting": "heat killed bacteria", "result": "did not incorporate"}, {"measurement": "accumulation of the probe", "setting": "[7]", "result": "accumulated"}, {"measurement": "accumulation in eukaryotic cell line", "setting": "WEHI 164 fibroblasts", "result": "not"}]}, {"smiles": "Nc1ccc(C(=O)O)cc1F", "note": "[3-F-PABA, 3-fluoro-PABA]", "values": [{"measurement": "intracellular uptake", "setting": "[2]; [8]", "result": 11.2, "unit": "%"}]}, {"smiles": "Nc1ccc(C(=O)O)cc1", "note": "[PABA, p-aminobenzoic acid]", "values": [{"measurement": "accumulation (percent of total radioactivity in bacterial pellet)", "setting": "[2]; 2 h", "result": 32.9, "unit": "%"}, {"measurement": "accumulation (percent of total radioactivity in bacterial pellet)", "setting": "[2]; 18 h", "result": 96.3, "unit": "%"}, {"measurement": "intracellular uptake", "setting": "[2]; 18 h", "result": 58.5, "unit": "%"}, {"measurement": "uptake on addition of excess unlabelled tracer", "setting": "[2]; M. tuberculosis, excess unlabelled tracer", "result": "saturable and specific"}, {"measurement": "uptake saturability/specificity", "setting": "Escherichia coli; E. coli mid log cultures", "result": "saturable and specific"}, {"measurement": "uptake saturability/specificity", "setting": "Staphylococcus aureus; S. aureus mid log cultures", "result": "saturable and specific"}, {"measurement": "accumulation in host-cells", "setting": "J774 macrophages; J774 macrophages, corresponding time-points (2 and 18 hours)", "result": "no significant accumulation"}, {"measurement": "uptake in heat killed bacteria", "setting": "heat killed bacteria", "result": "no uptake"}]}]}
